# Tests used:
# [1] = molecular target: GTPase HRas (Homo sapiens, UniProt P01112); test: Inhibition of GST-tagged HRAS (1 to 166 residues) (unknown origin) assessed as inhibition of mSOS1 mediated nucleotide exchange by [35S]GTPgammaS based liquid scintillation counting method
# [2] = tested on: NIH3T3; test: Antiproliferative activity against mouse NIH3T3 cells transfected with HRAS G12V mutant assessed as inhibition of cell growth incubated for 14 days by dissecting microscope based colony counting assay; type: functional; conditions: NIH3T3, 336 h
# [3] = molecular target: GTPase KRas (Homo sapiens, UniProt P01116, G12V); test: Binding affinity to GppNHp-tagged KRAS G12V mutant (unknown origin)
# [4] = tested on: GTPase KRas (Homo sapiens), P01116 [G12C]; test: Binding affinity to KRAS G12C mutant (unknown origin) assessed as covalent bond formation by measuring Kobs/[I] ratio
# [5] = molecular target: GTPase KRas (Homo sapiens, UniProt P01116, G12C); test: Inhibition of KRAS G12C mutant in human NCI-H358 cells incubated for 6 hrs by LC-MS/MS analysis; type: cell-based
# [6] = Inhibition of ERK phosphorylation in human NCI-H358 cells; type: cell-based
# [7] = Inhibition of Ras GTPase activation in HEK293T cells; type: cell-based, Homo sapiens
# [8] = Inhibition of ERK phosphorylation in human MIA PaCa-2 cells; type: cell-based
# [9] = tested on: SW480; test: Antitumor activity against human SW480 cells xenografted in athymic nude mouse assessed as inhibition of tumor growth at 80 mg/kg, po administered 5 days a week for 17 to 20 days relative to control; type: functional; conditions: time 17-20 day
# [10] = Inhibition of SOS1/KRAS (unknown origin) protein-protein interaction; design: species or system Homo sapiens
# [11] = tested on: HT-1080; test: Cytotoxicity against human HT-1080 cells harboring NRAS Q61K mutant assessed as inhibition of cell growth incubated for 72 hrs by celltiter-glo luminescent cell viability assay; type: functional, cell-based; conditions: HT-1080, 72 h
smiles,measurement,setting,value
O=[N+]([O-])c1cc(C(F)(F)F)cc([N+](=O)[O-])c1NNC(=S)Nc1ccc(F)cc1,IC50,[1],100 µM
same,IC50,[2],1.4 µM
O=C(NCC1COc2ccccc2O1)c1ccco1 (stereo unspecified),Kd,[3],235 µM
C=CC(=O)N1CC(NC(=O)Cn2cc(C(=O)N3CCc4c(cccc4OC)C3)c3cc(Br)ccc32)C1,Ratio,[4],230 M⁻¹ s⁻¹
C=CC(=O)N1CC(N2CCN(C(=O)CNc3cc(Cl)c(Cl)cc3O)CC2)C1,IC50,[5],50 µM
C=CC(=O)N1CCN(c2ncnc3c2CCN(c2cc(O)cc4ccccc24)C3)CC1,IC50,[6],7.6 µM
C=CC(=O)N1CCN(C(=O)CNc2cc(I)c(Cl)cc2O)CC1,IC50,[5],100 µM
C=CC(=O)N1CC(NC(=O)COc2ccc(Br)cc2NC(=O)c2cc(C)no2)C1,Ratio,[4],2 M⁻¹ s⁻¹
Cc1[nH]c2cc(Cl)cc(Cl)c2c1CCN,EC50,[7],15.8 µM
C=CC(=O)N1CCN(c2nc(=O)n(-c3c(C)ccnc3C(C)C)c3nc(-c4c(O)cccc4F)c(F)cc23)[C@@H](C)C1 [SOTORASIB],IC50,[8],0.068 µM
Cc1ccc(NC(=S)NNc2c([N+](=O)[O-])cc(C(F)(F)F)cc2[N+](=O)[O-])cc1Cl,IC50,[1],20 µM
same,IC50,[2],0.5 µM
same,inhibition in vivo at 80 mg/kg,[9],40%
COc1cc2nc(C)nc(N[C@H](C)c3cc(N)cc(C(F)(F)F)c3)c2cc1O[C@H]1CCOC1,IC50,[10],0.005 µM
COc1cc2ncnc(N[C@H](C)c3ccccc3)c2cc1OC,IC50,[10],1.6 µM
COc1nc(-c2cccc3c2OCCO3)ccc1Nc1ccc(CN(C)C)cc1,IC50,[11],10 µM
